In patent US6875451B2, “Compositions and methods for the treatment of primary and metastatic neoplastic diseases using arsenic compounds” (PolaRx Biopharmaceuticals Inc., priority 1997, dated 2005):

What was measured:
Type in all cases: cell-based
SF-268 = assay: SRB growth assay, 2 days exposure, CNS cancer
Procedure: (§1) Arsenic trioxide (1 mg/ml, 10 mg/ampoule, manufactured by Taylor Pharmaceuticals, Decatur, Ill.) was tested at five concentrations each at 10-fold dilutions, i.e., 10^−5, 10^−6, 10^−7, 10^−8 and 10^−9 μg/ml.
(§2) The in vitro tests were performed by incubating the test cells in the presence of the indicated concentration of arsenic trioxide under standard culture conditions for a designated period of time, which is followed by a sulforhodamine B (SRB) protein assay to estimate cell viability or growth. The cell lines are organized into subpanels according to the origin of the cell lines, e.g., leukemia, breast cancer, etc. A description of the cell lines and method of testing is described in Monk et al. (1997, Anticancer Drug Des. 12:533-41) and Weinstein et al., (1997, Science 275:343-9), which are incorporated herein in their entirety.
(§3) The measurement of an effect is expressed in Percentage Growth (PG). The measured effect of the compound on a cell line is calculated according to one or the other of the following two expressions: If (Mean ODtest−Mean ODzero)≧0. then PG=100×(Mean ODtest−Mean ODzero)/(Mean ODctrl−Mean ODzero) If (Mean ODtest−Mean ODzero)<0. then PG=100×(Mean ODtest−Mean ODzero)/(Mean ODzero where: • Mean ODzero=the average of optical density measurements of SRB-derived color just before exposure of cells to the test compounds; • Mean ODtest=the average of optical density measurements of SRB-derived color after exposure of cells to the test compound for a designated period of time; and • Mean ODctrl=the average of optical density measurements of SRB-derived color after with no exposure of cells to the test compound for a designated period of time
(§4) The first two columns describe the subpanel (e.g., leukemia) and cell line (e.g., CCRF-CEM) involved. The next two columns list the Mean ODzero and Mean ODctrl; the next five columns list the Mean ODtest for each of five different concentrations. Each concentration is expressed as the log10 (molar or μg/ml). The next five columns list the calculated PGs for each concentration. The response parameters GI50, TGI and LC50 are interpolated values representing the concentrations at which the PG is +50, 0, and −50, respectively. Sometimes these response parameters cannot be obtained by interpolation. If, for instance, all of the PGs in a given row exceed +50, then none of the three parameters can be obtained by interpolation. In such a case, the value given for each response parameter is the highest concentration tested and is preceded by a “>” sign. This practice is extended similarly to the other possible situations where a response parameter cannot be obtained by interpolation.
(§5) In the first set, the cells from 56 different cancer cell lines were exposed to five concentrations of arsenic trioxide continuously for two days prior to performing the SRB assay. In the second set, the cells from 50 different cell lines (a subset of the first 56 cell lines, plus the renal cancer cell line 786-0) were exposed continuously for six days prior to the SRB assay.

SF-295 = assay: SRB growth assay, 2 days exposure, CNS cancer
Procedure: as §1, §2, §3, §4, §5

SF-539 = assay: SRB growth assay, 2 days exposure, CNS cancer
Procedure: as §1, §2, §3, §4, §5

SNB-19 = assay: SRB growth assay, 2 days exposure, CNS cancer
Procedure: as §1, §2, §3, §4, §5

SNB-75 = assay: SRB growth assay, 2 days exposure, CNS cancer
Procedure: as §1, §2, §3, §4, §5

U251 = assay: SRB growth assay, 2 days exposure, CNS cancer
Procedure: as §1, §2, §3, §4, §5

CCRF-CEM = assay: SRB growth assay, 6 days exposure, leukemia
Procedure: as §1, §2, §3, §4, §5

K-562 = assay: SRB growth assay, 6 days exposure, leukemia; conditions: K-562, 6 days
Procedure: as §1, §2, §3, §4, §5

MOLT-4 = assay: SRB growth assay, 6 days exposure, leukemia; conditions: MOLT-4, 6 days
Procedure: as §1, §2, §3, §4, §5

RPMI-8226 = assay: SRB growth assay, 6 days exposure, leukemia; conditions: RPMI-8226, 6 days
Procedure: as §1, §2, §3, §4, §5

[1] = read-out: LC50 (the source's name)

Question: What does the source list for arsenic trioxide?
Answer: TGI (SF-268): >0.0126 ng/mL; Percent Growth (SF-268; log10 conc −4.9): 23%; Percent Growth (SF-268; log10 conc −5.9): 100%; Percent Growth (SF-268; log10 conc −6.9): 108%; Percent Growth (SF-268; log10 conc −7.9): 94%; Percent Growth (SF-268; log10 conc −8.9): 110%; TGI (SF-295): >0.0126 ng/mL; Percent Growth (SF-295; log10 conc −4.9): 51%; Percent Growth (SF-295; log10 conc −5.9): 91%; Percent Growth (SF-295; log10 conc −6.9): 91%; Percent Growth (SF-295; log10 conc −7.9): 96%; Percent Growth (SF-295; log10 conc −8.9): 93%; TGI (SF-539): 0.00885 ng/mL; Percent Growth (SF-539; log10 conc −4.9): −17%; Percent Growth (SF-539; log10 conc −5.9): 92%; Percent Growth (SF-539; log10 conc −6.9): 113%; Percent Growth (SF-539; log10 conc −7.9): 117%; Percent Growth (SF-539; log10 conc −8.9): 109%; TGI (SNB-19): >0.0126 ng/mL; Percent Growth (SNB-19; log10 conc −4.9): 36%; Percent Growth (SNB-19; log10 conc −5.9): 97%; Percent Growth (SNB-19; log10 conc −6.9): 98%; Percent Growth (SNB-19; log10 conc −7.9): 97%; Percent Growth (SNB-19; log10 conc −8.9): 93%; TGI (SNB-75): 0.00698 ng/mL; Percent Growth (SNB-75; log10 conc −4.9): −17%; Percent Growth (SNB-75; log10 conc −5.9): 37%; Percent Growth (SNB-75; log10 conc −6.9): 115%; Percent Growth (SNB-75; log10 conc −7.9): 100%; Percent Growth (SNB-75; log10 conc −8.9): 77%; TGI (U251): 0.00437 ng/mL; Percent Growth (U251; log10 conc −4.9): −68%; Percent Growth (U251; log10 conc −5.9): 80%; Percent Growth (U251; log10 conc −6.9): 101%; Percent Growth (U251; log10 conc −7.9): 99%; Percent Growth (U251; log10 conc −8.9): 98%; TGI (CCRF-CEM): >1.26E−05; Mean Optical Densities (CCRF-CEM; Log 10 Concentration −4.9): 0.048; Percent Growth (CCRF-CEM; Log 10 Concentration −4.9): 0%; Mean Optical Densities (CCRF-CEM; Log 10 Concentration −5.9): 0.320; Percent Growth (CCRF-CEM; Log 10 Concentration −5.9): 8%; Mean Optical Densities (CCRF-CEM; Log 10 Concentration −6.9): 3.051; Percent Growth (CCRF-CEM; Log 10 Concentration −6.9): 87%; Mean Optical Densities (CCRF-CEM; Log 10 Concentration −7.9): 3.592; Percent Growth (CCRF-CEM; Log 10 Concentration −7.9): 102%; Mean Optical Densities (CCRF-CEM; Log 10 Concentration −8.9): 3.601; Percent Growth (CCRF-CEM; Log 10 Concentration −8.9): 103%; CC50 (CCRF-CEM; [1]): > 12.6 µM; TGI (K-562): >1.26E−05; Mean Optical Densities (K-562; Log 10 Concentration −4.9): 0.096; Percent Growth (K-562; Log 10 Concentration −4.9): 2%; Mean Optical Densities (K-562; Log 10 Concentration −5.9): 2.931; Percent Growth (K-562; Log 10 Concentration −5.9): 97%; Mean Optical Densities (K-562; Log 10 Concentration −6.9): 3.360; Percent Growth (K-562; Log 10 Concentration −6.9): 112%; Mean Optical Densities (K-562; Log 10 Concentration −7.9): 2.992; Percent Growth (K-562; Log 10 Concentration −7.9): 99%; Mean Optical Densities (K-562; Log 10 Concentration −8.9): 3.042; Percent Growth (K-562; Log 10 Concentration −8.9): 101%; CC50 (K-562; [1]): > 12.6 µM; TGI (MOLT-4): >1.26E−05; Mean Optical Densities (MOLT-4; Log 10 Concentration −4.9): 0.113; Percent Growth (MOLT-4; Log 10 Concentration −4.9): 20%; Mean Optical Densities (MOLT-4; Log 10 Concentration −5.9): 0.245; Percent Growth (MOLT-4; Log 10 Concentration −5.9): 47%; Mean Optical Densities (MOLT-4; Log 10 Concentration −6.9): 0.432; Percent Growth (MOLT-4; Log 10 Concentration −6.9): 85%; Mean Optical Densities (MOLT-4; Log 10 Concentration −7.9): 0.228; Percent Growth (MOLT-4; Log 10 Concentration −7.9): 43%; Mean Optical Densities (MOLT-4; Log 10 Concentration −8.9): 0.554; Percent Growth (MOLT-4; Log 10 Concentration −8.9): 111%; Mean Optical Densities (RPMI-8226; Log 10 Concentration −4.9): 0.065; Percent Growth (RPMI-8226; Log 10 Concentration −4.9): −2%; Mean Optical Densities (RPMI-8226; Log 10 Concentration −5.9): 0.368; Percent Growth (RPMI-8226; Log 10 Concentration −5.9): 22%; Mean Optical Densities (RPMI-8226; Log 10 Concentration −6.9): 1.423; Percent Growth (RPMI-8226; Log 10 Concentration −6.9): 99%; Mean Optical Densities (RPMI-8226; Log 10 Concentration −7.9): 1.263; Percent Growth (RPMI-8226; Log 10 Concentration −7.9): 88%; Mean Optical Densities (RPMI-8226; Log 10 Concentration −8.9): 1.607; Percent Growth (RPMI-8226; Log 10 Concentration −8.9): 113%; CC50 (RPMI-8226; [1]): > 12.6 µM
